Where two headings read alike, the source gives them in different places.
Legend:
[1] = Ligand charge of maytansinoid conjugates; type: physicochemical
[2] = system: NCI-H524 (ATCC) human lung cancer cells; type: cell-based
In short: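 NCI-H524 cells (5,000/well) exposed to conjugates for 6 hours, washed, then grown a further 66 hours; ten-point threefold dilutions from 20 μM. Proliferation by CellTiter-Glo versus vehicle; IC50 by four-parameter nonlinear regression, measured with and without octreotide competition.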

[3] = system: human NCI-H69 SCLC; experiment: H69 xenograft efficacy study, tumor growth inhibition; type: in vivo, mice
Experimental: Applicants assessed the activity of maytansinoid conjugates in vivo. In these experiments, the ability of conjugates to affect the growth of human NCI-H69 SCLC was tested. For the in vivo study, 8 week old female NCR nude mice were inoculated subcutaneously into the right flank with 2 million cells in 1:1 RPMI 1640 (Invitrogen, Carlsbad, Calif.)/Matrigel® (BD Biosciences, San Jose, Calif.). Tumor measurements were taken twice weekly, using vernier calipers. Tumor volume was calculated using the formula: V=0.5×width×width×length.
When tumors approached a volume of 200 mm^3, mice were randomized into four groups of ten animals. Mice were treated with vehicle control (10% propylene glycol in water for injection) and maytansinoid conjugates (10% propylene glycol in water for injection). Final tumor volumes were analyzed using with a one-way analysis of variance and Tukey multiple comparison test.

[4] = Half-life in rat liver microsomes; type: in vitro ADME; conditions: read-out: rat LM t½ (mm)
Experimental: (§1) Half-life (t1/2) of maytansinoid conjugates were measured in rat plasma and rat liver microsomes (LM). PK values of maytansinoid conjugates in NCI-H69 SCLC (small cell lung cancer) tumor cells were measured.

[5] = Half-life in rat plasma; type: in vitro ADME; conditions: read-out: rat plasma t½ (converted)
Experimental: as §1

[6] = system: NCI-H69 SCLC (small cell lung cancer) tumor cells; experiment: H69 tumor PK; type: in vivo
Experimental: as §1

[7] = Chrom LogP of maytansinoid conjugates; type: physicochemical
[8] = molecular target: human SSTR2 (Homo sapiens, UniProt P30874); experiment: Radioligand-receptor binding assay, [125I] somatostatin, membranes from SSTR2 expressing CHO-K1 cells
Chain of human SSTR2 (P30874 whole entry): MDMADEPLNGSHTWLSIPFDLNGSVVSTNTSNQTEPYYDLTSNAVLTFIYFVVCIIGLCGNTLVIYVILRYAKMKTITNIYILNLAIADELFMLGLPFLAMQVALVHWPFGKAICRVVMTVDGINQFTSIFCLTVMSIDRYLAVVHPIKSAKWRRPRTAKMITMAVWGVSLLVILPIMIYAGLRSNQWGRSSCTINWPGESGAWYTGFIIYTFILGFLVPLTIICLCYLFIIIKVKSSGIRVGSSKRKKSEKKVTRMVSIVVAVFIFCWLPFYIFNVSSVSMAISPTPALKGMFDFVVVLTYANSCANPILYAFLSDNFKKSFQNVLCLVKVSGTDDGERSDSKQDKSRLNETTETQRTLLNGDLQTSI
In short: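 CHO-K1 SSTR2 membranes incubated 4 h with 0.03 nM [125I] somatostatin and conjugates in a 10-point, 6-fold series from 10 uM. Bound radioligand measured after filtration and washing; IC50 by non-linear least-squares regression.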

[9] = Pharmacokinetics study in mouse; conditions: in vivo
Experimental: Pharmacokinetics studies in mouse were also carried out. Half-life, Cmax and AUC values of Conjugate 6 were show in Table 10.

[10] = system: phospho-histone H3; experiment: Phospho-histone H3 response in NCI-H69 tumors; type: in vivo, mice
Experimental: Phospho-histone H3 response in NCI-H69 tumors was measured. […] At 24 hour, adjusted phospho-histone H3 response for Conjugate 6 was about 500 (fluorescence signal) and at 48 hour it was about 2300 (fluorescence signal).

[11] = 1.3 mg/kg once weekly for two doses
[12] = 2 mg/kg once weekly for two doses

## COc1cc2cc(c1Cl)N(C)C(=O)C[C@H](OC(=O)[C@H](C)N(C)C(=O)CCSSC(C)(C)[C@H](NC(=O)[C@@H]1CSSC[C@H](NC(=O)[C@H](N)Cc3ccccc3)C(=O)N[C@@H](Cc3ccc(O)cc3)C(=O)N[C@H](Cc3c[nH]c4ccccc34)C(=O)N[C@@H](CCCCN)C(=O)N[C@@H]([C@@H](C)O)C(=O)N1)C(N)=O)[C@]1(C)O[C@H]1[C@H](C)[C@@H]1C[C@@](O)(NC(=O)O1)[C@H](OC)/C=C/C=C(\C)C2 [Conjugate 6]
[1]
  Ligand charge: +2
[2]; read-out: H524 IC50 6 h, 6 hours treatment, further 66 hours incubation
  IC50: 13 nM
[2]; read-out: H524 IC50 with 100 μM octreotide 6 h, with 100 μM octreotide competition, 6 h treatment
  IC50: 545 nM
[3]; 0.7 mg/kg once weekly for three doses, day 33
  TGI % at day 33: 31.9%
[3]; 0.7 mg/kg once weekly for two doses, Day 11
  TGI % Day 11: 55%
[3]; 0.7 mg/kg once weekly for two doses, Day 14
  TGI % Day 14: 60%
[3]; 0.7 mg/kg once weekly for two doses, Day 18
  TGI % Day 18: 65%
[3]; 0.7 mg/kg once weekly for two doses, Day 21
  TGI % Day 21: 69%
[3]; 0.7 mg/kg once weekly for two doses, Day 25
  TGI % Day 25: 59%
[3]; [11]
  TGI % Day 13: 69.1%
  TGI % Day 17: 75.6%
  TGI % Day 20: 76.8%
  TGI % Day 24: 72.7%
  TGI % Day 30: 72.1%
[3]; [12]
  TGI % Day 13: 93.4%
  TGI % Day 17: 96.2%
  TGI % Day 20: 98.2%
  TGI % Day 24: 99.5%
  TGI % Day 30: 99.9%
[3]; Dose 0.63 × 3 mg/kg, total dose 1.89 mg/kg
  TGI % at day 22: 47%
[3]; Dose 0.65 × 2 mg/kg, total dose 1.3 mg/kg
  TGI % at day 22: 69%
[3]; Dose 1.2 × 2 mg/kg, total dose 2.4 mg/kg
  TGI % at day 22: 77%
[3]; Dose 2.0 × 2 mg/kg, total dose 4.0 mg/kg
  TGI % at day 22: 98%
[4]
  half-life: 2.97 h
[5]
  half-life: 18.2 h
[6]
  H69 tumor PK normalized- uM/umol/kg at 1 mpk in 10% PG: Ca. 0.420 uM/umol/kg
[7]
  chromatographic logP: 2.06
[8]
  Ki: 0.021 nM
[9]
  AUC(0-inf): 4.45 µM·h
  Cmax: 3000 nM
[9]; read-out: t½ (converted)
  half-life: 2.05 h
[10]; at 24 hour
  adjusted phospho-histone H3 response: about 500 fluorescence signal
[10]; at 48 hour
  adjusted phospho-histone H3 response: about 2300 fluorescence signal

Source: patent publication US20190125888A1, “TARGETED CONJUGATES AND PARTICLES AND FORMULATIONS THEREOF” (priority 2015, published 2019)
